Data on one compound can be found in publication PMC8692993, “PPARα and PPARγ activation is associated with pleural mesothelioma invasion but therapeutic inhibition is ineffective” (iScience, 2021).

The test system of series [1] is JU77 human mesothelioma cell line. Description: Soft agar colony formation assay. It counts as cell-based. As to conditions: JU77, GW6471 0.5-8 μM, p <0.05. How it is done: Cells were incubated with different concentrations of GW6471 (from 0.5 μM to 8 μM) for a soft agar colony formation assay ([Horibata et al., 2015]). Briefly, 3% 2-hydroxyethyl agarose (agarose, A4018; Sigma-Aldrich, Australia) was prepared as stock solution. The bottom layer was prepared by incubating 20% agarose gel in R10 complete medium, RPMI 1640 (Invitrogen) supplemented with 10% foetal calf serum (FCS; Life Technologies), 20 mM HEPES (Sigma-Aldrich), 0.05 mM 2-mercaptoethanol (pH 7.2; Merck, Kilsyth, Australia), 60 μg/mL penicillin (Life Technologies), 50 μg/mL gentamicin (David Bull Labs), for a final concentration of 0.6%, 2mL per well, at 4°C for 1 h to allow the mixture to solidify, then incubating at 37°C for at least 30 min before seeding the cells. The cell-containing layer (10% agarose gel in R10 complete medium for a final concentration of 0.3%, 1 mL per well) was prepared with a concentration of 1,000 cells/mL. 1 mL of cells was then transfer to each well. […]
Colony counting was performed by adding 1 mL of 0.005% crystal violet (C0775; Sigma-Aldrich, Australia) in PBS on top of each well and incubating at room temperature for 24 h. Pictures were taken and colonies counted with ImageJ (v1.52a).

The subject of series [2] is head and neck paraganglioma. Further details: method as in Florio et al., 2017. The note with it: 24 μM, by cell-cycle arrest and caspase-dependent apoptosis; ref Florio et al., 2017; cited from earlier work.
Series [3] has as its system HAP1, HAP1 PPARA KO, and HAP1 PPARG KO cell lines. The series can be described thus: MTT cell metabolic activity assay, HAP1 lines. It counts as cell-based, human. How it is done: (§1) Cells were harvested and seeded in 96-flat well plates (Corning) at a density of 5 x 10^4 cells/mL overnight. Media was removed and 100 μL media with GW6471 or GW9662 at indicated concentrations was added to each well. Cell viability and toxicity were measured at 48 h. Cells were incubated with 50 μL of a 2 mg/mL solution of (3-(4,5-dimethyl-thiazole-2-yl)-2,5-[…] tetrazolium (MTT, Sigma-Aldrich) in PBS for 4 h and then exposed to 100 μL dimethyl sulfoxide (DMSO; Sigma-Aldrich). Cell viability was measured by absorption at 570 nm in a microplate spectrophotometer (Spectromax 250 plate reader). Results are shown as relative cell viability.

Series [4] in a line: Mouse pharmacokinetic study, plasma exposure after IP dosing. It counts as in vivo, BALB/c mice. The note with it: IP 10 mg/kg; for Cmax / Plasma AUC0–24 h: female BALB/c mice. How it is done:
Pharmacokinetic animal studies were conducted using established procedures in accordance with the Australian Code of Practice for the Care and Use of Animals for Scientific Purposes, and the study protocols were reviewed and approved by the Monash Institute of Pharmaceutical Sciences Animal Ethics Committee. The systemic exposure of GW6471 was studied in non-fasted female BALB/c mice (5 - 8 weeks) weighing 15.2–22.6 g. Mice had access to food and water ad libitum throughout the pre- and post-dose sampling period. GW6471 (10 mg/kg) was dosed to all mice via a single intraperitoneal (IP) injection (5 mL/kg). For the ABT pre-treated group, ABT was pre-dosed to animals at 50 mg/kg via IP injection (5 mL/kg) 2 h prior to administration of GW6471. Following IP administration of GW6471, blood samples were collected up to 24 h at indicated time points (n = 3 mice per time point) with a maximum of three samples from each mouse. Blood samples were collected via submandibular bleed (approximately 120 μL) into polypropylene Eppendorf tubes containing heparin as anticoagulant and stabilisation cocktail (containing the protease inhibitor cocktail Complete® and KF) to minimise the potential for ex vivo compound degradation in blood/plasma samples. Once collected, blood samples were centrifuged immediately, supernatant plasma was removed, and stored at−80°C until analysis by liquid chromatography-mass spectrometry (LC–MS). The plasma concentration versus time profile was defined by the average plasma concentration at each sample time, and PK parameters were calculated using non-compartmental methods (PKSolver Version 2.0).
Compound quantification was performed using a Xevo G2 QTOF (in vitro metabolic stability) using positive electrospray ionisation under MS^E mode or a Waters Xevo TQD (mouse exposure) mass spectrometer using positive electrospray ionisation multiple-reaction monitoring mode. Compounds were eluted using an acetonitrile-water/0.05% formic acid gradient at a flow rate of 0.4 mL/min operating over a 4 min cycle on a Waters Acquity UPLC using a Supelco Ascentis Express RP C8 column (50 × 2.1 mm, 2.7 μm). Extraction was performed by precipitation using acetonitrile (1:1 volume ratio for microsomes and 2:1 volume ratio for plasma samples) followed by centrifugation. Compound concentrations were quantified against calibration standards prepared in an appropriate matrix to match the test samples (e.g. plasma or microsomes).
ABT Formulation: On the evening prior to dosing, ABT was dissolved in a 0.9% (w/v) saline using vortexing and sonicating, resulting in a colourless solution. The nominal concentration of ABT in the formulation was 10 mg/mL. GW6471 Formulation: The final drug contains 40% final volume of PEG400 (Kollisolv PEG E 400, Sigma Aldrich), and 60% final volume of Solutol HS-15 (Kolliphor HS-15, Sigma Aldrich). Solutol is previously mixed in a saline solution (12.5% concentration). On the day of dosing, the solid GW6471 was first dissolved in PEG400by thoroughly vortexing and sonicating for 5 min. Then, the saline solution containing Solutol HS-15 12.5% was added. Again, the formulation was then thoroughly vortexed and sonicated to produce a hazy pale yellow suspension with an apparent pH of 3.4. The nominal concentration of GW6471 in the formulation was 2 mg/mL. […] The dose administered to each mouse was calculated on the basis of the mouse body weight (determined prior to dosing).

The subject of another series is VGE62. Description: MTT cell metabolic activity assay, VGE62. It counts as cell-based, human. As to conditions: VGE62, 48 h, 0.391-100 μM; effect at higher micromolar concentrations. How it is done:
as §1

For the next series, the system named is AE17. The series can be described thus: MTT cell metabolic activity assay, AE17. The note with it: AE17, 48 h, 0.391-100 μM; effect at higher micromolar concentrations. It counts as cell-based, mouse. How it is done: as §1
Where [5] appears, read: ABT 50 mg/kg IP 2 h before (ABT + GW6471).

Broadly, the Cmax is the maximum level reached in the sampled fluid or tissue.

Structures are written as SMILES.

With `CCC(=O)NC[C@H](Cc1ccc(OCCc2nc(-c3ccccc3)oc2C)cc1)N/C(C)=C\C(=O)c1ccc(C(F)(F)F)cc1` [GW6471], the “Number of colonies formed” value in series [1] is reported as “significant reduction in the number of colonies formed”. Moreover, the “Cell viability and growth” value in series [2] was “reduced cell viability and growth”. Also, the “Cellular proliferation (MTT)” value in series [3] (HAP1, HAP1 PPARA KO, HAP1 PPARG KO, 0.391-100 μM) is “inhibited cellular proliferation at micromolar concentrations”. In addition, the “Growth inhibition compared between parental and PPARA/PPARG KO cells” value in series [3] (HAP1 versus HAP1 PPARA KO and HAP1 PPARG KO) was “identical”. Also, the “Increase of plasma concentration with ABT pre-treatment (based on AUC and Cmax)” value in series [4] (ABT pre-treatment versus none) is “approximately 3 fold”. The Cmax in series [4] (setting [5]) was 3600 nM; in series [4] (without ABT) it was 1180 nM. Besides, the results for the “Plasma AUC0–24 h” value in series [4] (setting [5]) and in series [4] (without ABT) were 31.4 h∗μM and 9.81 h∗μM, respectively. Further, the “Cell viability (MTT)” value with VGE62 and in the series on AE17 was “lowered viability” in each case.
